According to PubChem BioAssay AID1963836 (Molecular Pharmacology Branch, DTP, NCI, 2024):

Test system: 857933-349-R-J2-PDC complex spheroid viability
Assay: Anticancer human tumor 857933-349-R-J2-PDC patient-derived colon adenocarcinoma cell line growth inhibition [POLQ]
Conditions: for IC50: curve of first compound; for viability, T/C: stronger effect = lower value
How it was run: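 Three-cell-type spheroids modelling solid tumor plus stroma served as the readout system; POL inhibitors were tested individually and in combination, concentration ranges set by clinical Cmax where known.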

[1] = second compound 0.0316 µM, first compound 0.0316 µM
[2] = second compound 0.0316 µM, first compound 0.1 µM
[3] = second compound 0.0316 µM, first compound 0.316 µM
[4] = second compound 0.0316 µM, first compound 1 µM
[5] = second compound 0.0316 µM, first compound 3.16 µM
[6] = second compound 0.0316 µM, first compound 10 µM
[7] = second compound 0.1 µM, first compound 0.0316 µM
[8] = second compound 0.1 µM, first compound 0.1 µM
[9] = second compound 0.1 µM, first compound 0.316 µM
[10] = second compound 0.1 µM, first compound 1 µM
[11] = second compound 0.1 µM, first compound 3.16 µM
[12] = second compound 0.1 µM, first compound 10 µM
[13] = second compound 0.316 µM, first compound 0.0316 µM
[14] = second compound 0.316 µM, first compound 0.1 µM
[15] = second compound 0.316 µM, first compound 0.316 µM
[16] = second compound 0.316 µM, first compound 1 µM
[17] = second compound 0.316 µM, first compound 3.16 µM
[18] = second compound 0.316 µM, first compound 10 µM
[19] = second compound 1 µM, first compound 0.0316 µM
[20] = second compound 1 µM, first compound 0.1 µM
[21] = second compound 1 µM, first compound 0.316 µM
[22] = second compound 1 µM, first compound 1 µM
[23] = second compound 1 µM, first compound 3.16 µM
[24] = second compound 1 µM, first compound 10 µM
[25] = second compound 3.16 µM, first compound 0.0316 µM
[26] = second compound 3.16 µM, first compound 0.1 µM
[27] = second compound 3.16 µM, first compound 0.316 µM
[28] = second compound 3.16 µM, first compound 1 µM
[29] = second compound 3.16 µM, first compound 3.16 µM
[30] = second compound 3.16 µM, first compound 10 µM
[31] = second compound 10 µM, first compound 0.0316 µM
[32] = second compound 10 µM, first compound 0.1 µM
[33] = second compound 10 µM, first compound 0.316 µM
[34] = second compound 10 µM, first compound 1 µM
[35] = second compound 10 µM, first compound 3.16 µM
[36] = second compound 10 µM, first compound 10 µM
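Also: spheroids exposed to compounds for seven days before readout.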

## CNCc1ccc(-c2[nH]c3cc(F)cc4c3c2CCNC4=O)cc1 + Cc1cccc(N(C)C(=O)C2C(O)CCN2c2nc(C)cc(C(F)(F)F)c2C#N)c1
Second compound 0.0316 µM
  IC50: > 10000 nM
Second compound 0.1 µM
  IC50: > 10000 nM
Second compound 0.316 µM
  IC50: > 10000 nM
Second compound 1 µM
  IC50: > 10000 nM
Second compound 3.16 µM
  IC50: > 10000 nM
Second compound 10 µM
  IC50: > 10000 nM
[1]
  viability, T/C: 98.9%
[2]
  viability, T/C: 111%
[3]
  viability, T/C: 96.3%
[4]
  viability, T/C: 99.2%
[5]
  viability, T/C: 78.9%
[6]
  viability, T/C: 99.7%
[7]
  viability, T/C: 103%
[8]
  viability, T/C: 90.7%
[9]
  viability, T/C: 90.7%
[10]
  viability, T/C: 76.4%
[11]
  viability, T/C: 102%
[12]
  viability, T/C: 104%
[13]
  viability, T/C: 97.3%
[14]
  viability, T/C: 104%
[15]
  viability, T/C: 108%
[16]
  viability, T/C: 95.5%
[17]
  viability, T/C: 103%
[18]
  viability, T/C: 89.5%
[19]
  viability, T/C: 120%
[20]
  viability, T/C: 98.5%
[21]
  viability, T/C: 90.7%
[22]
  viability, T/C: 86.5%
[23]
  viability, T/C: 104%
[24]
  viability, T/C: 79.3%
[25]
  viability, T/C: 88.7%
[26]
  viability, T/C: 112%
[27]
  viability, T/C: 95.7%
[28]
  viability, T/C: 105%
[29]
  viability, T/C: 95.4%
[30]
  viability, T/C: 80.5%
[31]
  viability, T/C: 102%
[32]
  viability, T/C: 106%
[33]
  viability, T/C: 117%
[34]
  viability, T/C: 68.4%
[35]
  viability, T/C: 116%
[36]
  viability, T/C: 86.3%

## CC1COCCN1c1cc(C2(O)CC3CCC(C2)O3)c2cnn(-c3ccn[nH]3)c2n1 (stereo not drawn) + Nc1ccc(C#CCN(C(=O)Cc2ncc(C(F)(F)F)cc2C(F)(F)F)c2ccc(F)cc2)nn1
Second compound 0.0316 µM
  IC50: 863 nM
Second compound 0.1 µM
  IC50: > 10000 nM
Second compound 0.316 µM
  IC50: 787 nM
Second compound 1 µM
  IC50: 662 nM
Second compound 3.16 µM
  IC50: > 10000 nM
Second compound 10 µM
  IC50: > 10000 nM
[1]
  viability, T/C: 72.7%
[2]
  viability, T/C: 76.5%
[3]
  viability, T/C: 60.7%
[4]
  viability, T/C: 50.3%
[5]
  viability, T/C: 47.4%
[6]
  viability, T/C: 47.6%
[7]
  viability, T/C: 74.4%
[8]
  viability, T/C: 74.7%
[9]
  viability, T/C: 52.7%
[10]
  viability, T/C: 53.1%
[11]
  viability, T/C: 45.5%
[12]
  viability, T/C: 59%
[13]
  viability, T/C: 77.9%
[14]
  viability, T/C: 63.2%
[15]
  viability, T/C: 58.2%
[16]
  viability, T/C: 46.2%
[17]
  viability, T/C: 44.7%
[18]
  viability, T/C: 40.1%
[19]
  viability, T/C: 78%
[20]
  viability, T/C: 70.4%
[21]
  viability, T/C: 61.8%
[22]
  viability, T/C: 40.9%
[23]
  viability, T/C: 40%
[24]
  viability, T/C: 49.2%
[25]
  viability, T/C: 79.2%
[26]
  viability, T/C: 72.3%
[27]
  viability, T/C: 61.4%
[28]
  viability, T/C: 44.1%
[29]
  viability, T/C: 49.9%
[30]
  viability, T/C: 56.4%
[31]
  viability, T/C: 78.2%
[32]
  viability, T/C: 58.9%
[33]
  viability, T/C: 62.1%
[34]
  viability, T/C: 54%
[35]
  viability, T/C: 48.6%
[36]
  viability, T/C: 56%

## CCc1c2c(nc3ccc(O)cc13)-c1cc3c(c(=O)n1C2)COC(=O)[C@]3(O)CC + COC1C(OC(N)=O)C(O)C(Oc2ccc3c(O)c(NC(=O)c4ccc(O)c(CC=C(C)C)c4)c(=O)oc3c2C)OC1(C)C
Second compound 0.0316 µM
  IC50: 19.9 nM
Second compound 0.1 µM
  IC50: 19.4 nM
Second compound 0.316 µM
  IC50: 17.5 nM
Second compound 1 µM
  IC50: 12.5 nM
Second compound 3.16 µM
  IC50: 15.8 nM
Second compound 10 µM
  IC50: 9.42 nM
Second compound 0.0316 µM, first compound 0.00316 µM
  viability, T/C: 84.5%
Second compound 0.0316 µM, first compound 0.01 µM
  viability, T/C: 71.7%
[1]
  viability, T/C: 32.1%
[2]
  viability, T/C: 25.3%
[3]
  viability, T/C: 17.5%
[4]
  viability, T/C: 5.52%
Second compound 0.1 µM, first compound 0.00316 µM
  viability, T/C: 88.3%
Second compound 0.1 µM, first compound 0.01 µM
  viability, T/C: 76.1%
[7]
  viability, T/C: 29.7%
[8]
  viability, T/C: 20.2%
[9]
  viability, T/C: 14.1%
[10]
  viability, T/C: 4.89%
Second compound 0.316 µM, first compound 0.00316 µM
  viability, T/C: 92.3%
Second compound 0.316 µM, first compound 0.01 µM
  viability, T/C: 71.7%
[13]
  viability, T/C: 26.3%
[14]
  viability, T/C: 17.3%
[15]
  viability, T/C: 15.2%
[16]
  viability, T/C: 5.5%
Second compound 1 µM, first compound 0.00316 µM
  viability, T/C: 89%
Second compound 1 µM, first compound 0.01 µM
  viability, T/C: 56.6%
[19]
  viability, T/C: 22.9%
[20]
  viability, T/C: 16.7%
[21]
  viability, T/C: 16.2%
[22]
  viability, T/C: 5.68%
Second compound 3.16 µM, first compound 0.00316 µM
  viability, T/C: 84.8%
Second compound 3.16 µM, first compound 0.01 µM
  viability, T/C: 62.8%
[25]
  viability, T/C: 29.8%
[26]
  viability, T/C: 22.4%
[27]
  viability, T/C: 12.5%
[28]
  viability, T/C: 6.77%
Second compound 10 µM, first compound 0.00316 µM
  viability, T/C: 80.6%
Second compound 10 µM, first compound 0.01 µM
  viability, T/C: 42.7%
[31]
  viability, T/C: 35%
[32]
  viability, T/C: 16.2%
[33]
  viability, T/C: 12.2%
[34]
  viability, T/C: 4.37%

## COc1cccc2c1C(=O)c1c(O)c3c(c(O)c1C2=O)CC(O)(C(=O)CO)CC3OC1CC(N)C(O)C(C)O1 (stereo not drawn) + Nc1ccc(C#CCN(C(=O)Cc2ncc(C(F)(F)F)cc2C(F)(F)F)c2ccc(F)cc2)nn1
Second compound 0.0316 µM
  IC50: 220 nM
Second compound 0.1 µM
  IC50: 212 nM
Second compound 0.316 µM
  IC50: 234 nM
Second compound 1 µM
  IC50: 216 nM
Second compound 3.16 µM
  IC50: 175 nM
Second compound 10 µM
  IC50: 149 nM
[1]
  viability, T/C: 74.9%
[2]
  viability, T/C: 63%
[3]
  viability, T/C: 43.9%
[4]
  viability, T/C: 5.65%
[5]
  viability, T/C: 0.31%
[6]
  viability, T/C: 0.26%
[7]
  viability, T/C: 74.3%
[8]
  viability, T/C: 67.1%
[9]
  viability, T/C: 40.7%
[10]
  viability, T/C: 5.86%
[11]
  viability, T/C: 0.25%
[12]
  viability, T/C: 0.17%
[13]
  viability, T/C: 65%
[14]
  viability, T/C: 85.6%
[15]
  viability, T/C: 41.1%
[16]
  viability, T/C: 5.61%
[17]
  viability, T/C: 0.2%
[18]
  viability, T/C: 0.19%
[19]
  viability, T/C: 83%
[20]
  viability, T/C: 75.7%
[21]
  viability, T/C: 36.9%
[22]
  viability, T/C: 9.45%
[23]
  viability, T/C: 0.22%
[24]
  viability, T/C: 0.23%
[25]
  viability, T/C: 72.5%
[26]
  viability, T/C: 60.4%
[27]
  viability, T/C: 37.9%
[28]
  viability, T/C: 5.43%
[29]
  viability, T/C: 0.39%
[30]
  viability, T/C: 0.28%
[31]
  viability, T/C: 66.9%
[32]
  viability, T/C: 63%
[33]
  viability, T/C: 26.8%
[34]
  viability, T/C: 6.24%
[35]
  viability, T/C: 0.35%
[36]
  viability, T/C: 0.32%
